Here are results for 7 molecules from PMC7013932, “Disulfide-Linked Peptides for Blocking BTLA/HVEM Binding” (International Journal of Molecular Sciences, 2020).

The subject of data set [1] is peripheral blood mononuclear cells (PBMC). The class given is cell-based, human. Particulars: PBMC from 3 healthy donors; peptide 0.1 and 5 mg/ml; 6 and 24 h, 37 °C; trypan blue counting and DAPI flow cytometry. How it is done:
(§1) Then, we measured the cell death by counting the cells using trypan blue and by flow cytometry using 4′,6-diamidino-2-phenylindole dihydrochloride (DAPI).
Blood samples were also collected from healthy volunteers through the local Swiss blood bank. Fresh peripheral blood mononuclear cells were purified by density gradient centrifugation (Isopaque-Ficoll) within 2 h after blood sampling. Cells were cryopreserved in RPMI medium 1640 supplemented with 40% FCS and 10% DMSO.
Then, 2 × 10^4 total PBMC per well (96-well plate) was cultured with or without the HVEM (14–39) peptide at 5 or 0.1 mg/mL in RPMI 1640 supplemented with 10% FCS, 1% penicillin-streptomycin, and 25 mM HEPES. After 6 and 24 h at 37 °C, cells were harvested counted with Trypan blue exclusion. Cells were then labeled with DAPI and analyzed by flow cytometry to determine the percentage of cell death. […]
medium at time points (from the bottom) = 0h, 2h, 3h, 6h and 24h (gradient 5-100%B in 60 […]
Figure S6. 293T cells expressing human BTLA were incubated with different concentrations (0.1, 1 and 5 mg/ml) of peptide HVEM(14-39) prior labeling with rhHVEM-Fc and AF647-conjugated anti-human IgG antibody.
Fig. S7. Cytotoxic assay. PBMC from 3 healthy donors were incubated with HVEM(14-39) peptide at 0, 0.1 and 5 mg/ml in culture medium for 6 and 24h. Cells were subsequently counted and labelled with a dead cell marker. […]
(In general: A flow cytometer gives signals particle by particle.)

The target of a further data set is T1, BTLA protein (Homo sapiens, UniProt Q7Z6A9).
T1 construct: purchased Novoprotein C563
In words: SPR analysis of BTLA protein binding to immobilized HVEM (14–39) peptide. How it is done:
To analyze the binding properties between BTLA and the HVEM (14–39) peptide, we performed the affinity measurements using SPR. Thus, the peptide extended by five glycine residues at the N-terminus and biotin was first immobilized on a streptavidin matrix-coated sensor chip. The BTLA protein was then injected at different concentrations (0, 1, 3, 5, 10, and 15 µM). […] Moreover, the SPR results reveal that the peptide binds approximately 8 times slower (k1 = 76400), and dissociates 36 times slower (k−1 = 0.00332) than does the HVEM protein (k1 = 620000 and k−1 = 0.12), which agrees with the theoretical results of simulations with crystal-based structure and NMR-based structure of the peptide (Table 1).
Figure 6 SPR analysis of the BTLA protein binding to the HVEM (14–39) peptide. Sensorgrams show the results of SPR analysis conducted on the binding of the indicated concentrations of BTLA protein (C = 0, 1, 3, 5, 10, and 15 μM) in HBS-EP buffer.
Recombinant human BTLA protein was purchased from Novoprotein (company product code: C563). Recombinant human BTLA-Fc, HVEM-Fc and anti-human BTLA (#7.1)-blocking mAb were a generous gift from Prof. D. Olive (Inserm U1068/CNRS U7258, Marseille, France). Anti-HVEM mAb was biotinylated according to the manufacturer’s instructions (Biotin Labeling Kit-NH2, Abnova, #KA0003).
Standard SPR analyses were performed using a Biacore T200 (GE Healthcare) instrument essentially as described in the manufacturer’s manual. BTLA protein binding was studied using the HVEM(14–39) peptide elongated by five glycine residues at the N-terminus and immobilized on a streptavidin matrix-coated Sensor Chip SA (GE Healthcare). The peptide was immobilized on the sensor surface to yield a final value of ~1100 RU. HBS-EP (150 mM NaCl, 10 mM HEPES pH 7.4, 3 mM EDTA, 0.05% Surfactant P20) was used as the running buffer. In all the experiments, the buffer flow was set to 30 µL/min, with all injections at a volume of 120 µL. The sensorchip surface was regenerated with 0.5 M NaCl and 10 mM glycine. The data obtained were analyzed using Biacore T200 Evaluation Software 3.1 (Biacore, GE Healthcare, USA). The results are presented as sensorgrams obtained after subtraction of the background response signal from control experiments with buffer injections.
In general terms: Surface plasmon resonance follows binding to a sensor surface in real time, without labels.

For a further data set, the system named is 293T cells. In words: Toxicity on 293T cells (data not shown). The class given is cell-based, human. Particulars: 5 mg/mL.
Excerpt: as §1

Data set [2] deals with T2, BTLA/HVEM binding on 293T cells expressing human BTLA (Homo sapiens, UniProt Q7Z6A9).
T2 construct: Krummenacher, University of Pennsylvania; host or cells: 293T
The experiment in a line: BTLA/HVEM interaction cell line assay (HVEM-Fc binding to 293T cells expressing BTLA, flow cytometry). The class given is cell-based. Conditions: 293T cells expressing human BTLA preincubated with peptide 5 mg/mL, 1 h, 4 °C in PBS, then HVEM-Fc 8 μg/mL and AF647 anti-human IgG. How it is done:
Figure 7 HVEM (14–39) peptide blocks BTLA/HVEM binding. 293T cells expressing human BTLA were incubated with peptides (5 mg/mL) prior to labeling with HVEM-Fc and AF647-conjugated anti-human IgG antibody. The blocking capacity of the HVEM (14–39) peptide was first compared to (A) a scrambled (Ac-[…]-NH2) peptide or (B) to variant peptides (Table S2).
Cells (293T) expressing BTLA (a generous gift from Dr. C. Krummenacher, University of Pennsylvania, USA) were maintained in culture with RPMI 10% FCS supplemented with 0.2 mg/mL hygromycin B. The cells (2 × 10^5) were incubated with HVEM-Fc (at 8 μg/mL in PBS containing 0.5% BSA) for 30 min at 4 °C. The cells were then washed and incubated with goat anti-human Fc conjugated with AF647 for 20 min at 4 °C in PBS containing 0.5% BSA (Jackson ImmunoResearch, #109–606–170). Inhibition of BTLA/HVEM binding by different peptides was assessed after preincubating the cells with different concentrations of the peptide (5, 1, and 0.1 mg/mL) for 1 h at 4 °C in PBS. After washing in PBS, the cells were stained for 20 min at 4 °C with an amine reactive dye (aqua live/dead stain kit, from Life Technologies, L34957) for dead cell exclusion. BTLA expression was controlled by anti-BTLA APC-conjugated antibody (Biolegend, #344510). Maximum inhibition of binding was determined by adding anti-BTLA7.1 antibody (2 μg/mL) for 1 h at 4 °C, before adding HVEM-Fc. Sample acquisition was performed on a Gallios Flow Cytometer (Beckman Coulter), and data were analyzed using FlowJo Software (TreeStar).

Data set [3] has as its target HVEM 1-103 (Homo sapiens) (UniProt Q92956). In words: SPR. Particulars: cited from earlier work.
In data set [4] the target is T3, Recombinant human BTLA-Fc (human, UniProt Q7Z6A9 31-157).
T3 construct: also called BTLA-Fc protein; immobilized BTLA protein; source: gift from Prof; D. Olive (recombinant)
T3 sequence (looked up): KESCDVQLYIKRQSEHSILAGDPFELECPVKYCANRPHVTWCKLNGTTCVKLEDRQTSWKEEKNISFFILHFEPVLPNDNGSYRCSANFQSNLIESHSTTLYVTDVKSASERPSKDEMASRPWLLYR
The experiment in a line: affinity chromatography on a microcolumn, fractions read by MALDI-TOF MS; BTLA-Fc immobilised in a microcolumn; peptide incubated, excess removed, complex dissociated; supernatant, last wash and elution analysed by mass spectrometry. Conditions: both partners purified.

The subject of the next data set is BTLA. Particulars: SPR, HVEM protein binding to BTLA; unit not given; cited from earlier work. The text has this:
Table 1 Rate constants: k1, k−1 and KD for the BTLA/HVEM and BTLA/HVEM (14–39) complexes determined using SPR and molecular dynamics simulation. […] SPR provided more accurate data. […] KD and affinity are inversely related, which means that the lower the KD value, the higher the affinity of the molecules. The HVEM (14–39) peptide binds and d ...

Positions of bridges follow the written chain, without caps; N, C: chain ends. Residues, ends and D or L forms follow the SMILES beside them.

T2 sequence (Q7Z6A9 31-289): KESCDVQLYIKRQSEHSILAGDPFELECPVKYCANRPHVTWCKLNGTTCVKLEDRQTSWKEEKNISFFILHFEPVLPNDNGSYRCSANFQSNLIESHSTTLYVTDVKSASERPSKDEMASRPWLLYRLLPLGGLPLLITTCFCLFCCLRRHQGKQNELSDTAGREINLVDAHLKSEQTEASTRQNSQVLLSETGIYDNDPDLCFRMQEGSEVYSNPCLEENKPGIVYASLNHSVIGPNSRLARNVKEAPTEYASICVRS
Sequence of HVEM 1-103 (Homo sapiens) (Q92956 1-103): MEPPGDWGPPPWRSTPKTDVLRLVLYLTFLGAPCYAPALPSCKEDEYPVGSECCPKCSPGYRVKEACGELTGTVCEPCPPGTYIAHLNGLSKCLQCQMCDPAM

With `CC(=O)N[C@@H](CCC(=O)O)C(=O)N[C@@H](CO)C(=O)N[C@H]1CSSC[C@@H]2NC(=O)[C@H](C)NC(=O)[C@H](CCC(=O)O)NC(=O)[C@H](CCCCN)NC(=O)[C@H](C(C)C)NC(=O)[C@H](CCCNC(=N)N)NC(=O)[C@H](Cc3ccc(O)cc3)NC(=O)CNC(=O)[C@@H]3CCCN3C(=O)[C@H](CO)NC(=O)[C@H](CSSC[C@@H](C(=O)N[C@@H](CCC(=O)O)C(=O)N3CCC[C@H]3C(N)=O)NC(=O)[C@H](C(C)C)NC(=O)[C@H]([C@@H](C)O)NC(=O)CNC(=O)[C@H]([C@@H](C)O)NC(=O)[C@H](CC(C)C)NC(=O)[C@H](CCC(=O)O)NC(=O)CNC2=O)NC(=O)[C@H](CCCCN)NC(=O)[C@@H]2CCCN2C1=O` [HVEM (14–39)] (Ac-ESCPKCSPGYRVKEACGELTGTVCEP-NH2; disulfide 3-16, 6-24), the “cell death of PBMC” value in data set [1] is listed as “did not find any significant increase in cell death”. Besides, the kon at BTLA protein (SPR Biacore T200, peptide extended by five Gly and biotin at N-terminus on streptavidin chip SA (~1100 RU), BTLA 0-15 µM, HBS-EP pH 7.4, mean of four measurements, read-out: k1, association rate constant) is 76400 M⁻¹ s⁻¹. The Kd – broadly, the constant that tells how readily two partners part at equilibrium – on BTLA protein (SPR, Table S1 measurement No 1) is 13 nM; at BTLA protein (SPR, Table S1 measurement No 2) it was 149 nM; on BTLA protein (SPR, Table S1 measurement No 3) it was 217 nM; at BTLA protein (SPR, Table S1 measurement No 4), 30.6 nM; on BTLA protein (SPR, biotin-Gly5 peptide on streptavidin chip, BTLA 0-15 µM, HBS-EP pH 7.4, mean of four measurements) it was 102 nM. Further, the koff at BTLA protein (SPR, biotin-Gly5 peptide on streptavidin chip, BTLA 0-15 µM, HBS-EP pH 7.4, mean of four measurements, read-out: k−1, dissociation rate constant) was 0.00332 s⁻¹. For the same molecule, the “toxicity on 293T cells” value in the data set on 293T cells was “did not observe any toxicity”.

In the case of `CC(=O)N[C@@H](CCC(=O)O)C(=O)N[C@@H](CO)C(=O)N[C@H]1CSSC[C@@H](C(=O)N[C@@H](CO)C(=O)N2CCC[C@H]2C(=O)NCC(=O)N[C@@H](Cc2ccc(O)cc2)C(=O)N[C@@H](CCCNC(=N)N)C(=O)N[C@H](C(=O)N[C@@H](CCCCN)C(=O)N[C@@H](CCC(=O)O)C(=O)N[C@@H](C)C(=O)N[C@H]2CSSC[C@@H](C(=O)N[C@@H](CCC(=O)O)C(=O)N3CCC[C@H]3C(N)=O)NC(=O)[C@H](C(C)C)NC(=O)[C@H]([C@@H](C)O)NC(=O)CNC(=O)[C@H]([C@@H](C)O)NC(=O)[C@H](CC(C)C)NC(=O)[C@H](CCC(=O)O)NC(=O)CNC2=O)C(C)C)NC(=O)[C@H](CCCCN)NC(=O)[C@@H]2CCCN2C1=O` [HVEM (14–39)^C16–C19, ^C29–C37] (Ac-ESCPKCSPGYRVKEACGELTGTVCEP-NH2; disulfide 3-6, 16-24), the “blocking of HVEM-Fc binding to BTLA (geometric fluorescence intensity, GMFI)” value (from here on “blocking of HVEM-Fc binding to BTLA”) in data set [2] was “slight decrease in the blocking capacity”.

With `CC(=O)N[C@@H](CCC(=O)O)C(=O)N[C@@H](CO)C(=O)N[C@H]1CSSC[C@@H](C(=O)N[C@@H](CCC(=O)O)C(=O)N2CCC[C@H]2C(N)=O)NC(=O)[C@H](C(C)C)NC(=O)[C@H]([C@@H](C)O)NC(=O)CNC(=O)[C@H]([C@@H](C)O)NC(=O)[C@H](CC(C)C)NC(=O)[C@H](CCC(=O)O)NC(=O)CNC(=O)[C@@H]2CSSC[C@H](NC(=O)[C@H](CCCCN)NC(=O)[C@@H]3CCCN3C1=O)C(=O)N[C@@H](CO)C(=O)N1CCC[C@H]1C(=O)NCC(=O)N[C@@H](Cc1ccc(O)cc1)C(=O)N[C@@H](CCCNC(=N)N)C(=O)N[C@@H](C(C)C)C(=O)N[C@@H](CCCCN)C(=O)N[C@@H](CCC(=O)O)C(=O)N[C@@H](C)C(=O)N2` [HVEM (14–39)^C16–C37, ^C19–C29] (Ac-ESCPKCSPGYRVKEACGELTGTVCEP-NH2; disulfide 3-24, 6-16), in data set [2], the “blocking of HVEM-Fc binding to BTLA” value was “slight decrease in the blocking capacity”.

In the case of “Ac-ESSPKSSPGYRVKEASGELTGTVSEP-NH2 [HVEM (14–39)^C16,19,29,37S]”, the “blocking of HVEM-Fc binding to BTLA” value in data set [2] is listed as “blocking capacity was completely lost”.

BTLA (from UniProt Q7Z6A9): in data set [3], the Kd was 250 nM.

B1: HVEM (14–39) peptide (peptide, UniProt Q92956 52-77, looked up)
peptide: Ac-ESCPKCSPGYRVKEACGELTGTVCEP-NH2
modifications: disulfide 3-16, 6-24
notes: herpes virus entry mediator (HVEM), residues 14-39 of the numbering of the crystal structure PDB 2AW2, Cys15 replaced by serine; A C-terminal amide is likely (the scrambled peptide is printed as Ac-...-NH2); also called native HVEM (14–39) peptide; native peptide; source: synthetic peptide (solid-phase, Fmoc/tBu, RP-HPLC purified, disulfides formed stepwise)
Regarding B1, in data set [4], the binding result is “binds”.

B2: HVEM: herpes virus entry mediator, transmembrane glycoprotein of the TNFR superfamily, ligand of BTLA (protein)
chain: LPSCKEDEYPVGSECCPKCSPGYRVKEACGELTGTVCEPCPPGTYIAHLNGLSKCLQCQMCDPAMGLRASRNCSRTENAVCGCSPGHFCIVQDGDHCAACRAYATSSPGQRVQKGGTESQDTLCQNCPPGTFSPNGTLEECQHQTKCSWLVTKAGAGTSSSHWV
modifications: left off: Fc (detected with anti-human Fc/IgG), end not stated, kept
notes: herpes virus entry mediator, transmembrane glycoprotein of the TNFR superfamily, ligand of BTLA
With B2, the “k−1” value with BTLA is listed as 0.12.
